Patent publication US11903912B2, “Composition for preventing and treating breast cancer including selenopsammaplin A as active ingredients” (Seoul National University R & DB Foundation, priority 2019, dated 2024)

What was measured:
MDA-MB-231 cells [1] = test: Cancer cell migration (scratch) test; assay type: cell-based, human; details: MDA-MB-231, scratch, 50-400 nM, 24 hours
Experimental: The triple-negative breast cancer cell line MDA-MB-231 was spread at a concentration of 2×10^6 cells/well on a DMEM medium containing 10% FBS in a 6-well plate, cultured at 37° C. for 24 hours under a 5% CO2 condition, and then washed once with phosphate-buffered saline (PBS). After scratching using a 200 μl tip, the cells were treated with 50-400 nM compound 2 and 400 nM psammaplin A, and then cultured for 24 hours. After washing once with PBS, the degree of migration of cells was photographed using a microscope, and the results thereof are illustrated in FIG. 5A. The degree of scratch healing compared to a control using ImageJ software is illustrated in FIG. 5B.

MDA-MB-231 cells [2] = test: Cancer cell invasion (Transwell) test; assay type: cell-based, human; details: MDA-MB-231, Transwell, 50-400 nM, 24 hours
Experimental: The triple-negative breast cancer cell line MDA-MB-231 was spread at a concentration of 1×10^6 cells/well on a DMEM medium containing 10% FBS in a Transwell plate, cultured at 37° C. for 24 hours under a 5% CO2 condition, and then washed once with phosphate-buffered saline (PBS). Subsequently, the cells were treated with 50-400 nM compound 2 and 400 nM psammaplin A, and then cultured for 24 hours. After washing once with PBS, a membrane was attached to a slide glass, the degree of cell invasion was photographed using a microscope, and the results thereof are illustrated in FIG. 6A. The degree of invasion compared to a control using ImageJ software is illustrated in FIG. 6B.

DOT1L = molecular target: T1, DOT1L (Homo sapiens, UniProt Q8TEK3); test: Inhibition of DOT1L methylation (H3K79) by western blotting; assay type: cell-based; details: breast cancer cell line, FIG. 3
T1 construct: based on the finding that DOT1L was overexpressed in the breast cancer cell line; endogenous in cells
Text: As confirmed in Example 1, based on the finding that DOT1L was overexpressed in the breast cancer cell line, the effects of the derivatives of the present invention on the methylation of the histone 3 lysine 79 (H3K79) residue, which is an in-vivo target of DOT1L, were examined by western blotting.

[3] = system: EMT markers in MDA-MB-231 cells; test: Gene expression of EMT markers, real-time PCR; assay type: cell-based, human; details: MDA-MB-231, real-time PCR
Experimental: To confirm the EMT-related gene expression levels of the human breast cancer cell line MDA-MB-231, an experiment was performed as follows. To examine the EMT marker expression levels of the human breast cancer cell line MDA-MB-231, breast cancer cells were spread at a concentration of 1×10^6 cells/well on an RPMI medium containing 10% FBS in a 100 mm culture dish, cultured at 37° C. for 24 hours under a 5% CO2 condition, and then washed twice with phosphate-buffered saline (PBS). Attached cells were washed twice with PBS, the TRI reagent (TRIzol (#15596-026, Invitrogen, Grand Island, N.Y.)) was used to disrupt the cells, and then CHCl3 was added thereto to extract RNA, followed by precipitation using isopropyl alcohol. The RNA precipitate was washed with 70% ethanol, dried in air, and then […] using nuclease-free water (AM9937, Ambion, Austin, Tex.), followed by heating at 55° C. for 10 minutes and heat treatment at 70° C. for 5 minutes, so that RNA was present in a single strand state. Total RNA was quantified using NanoDrop (ND-1000, Dae Myung Science, Seoul, Korea) and diluted to 1 μg/μL, and then cDNA was produced using Avian Myeloblastosis Virus (AMV) Reverse Transcriptase (M5108, Promega, Madison, Wis.) and an oligo(dT)15 primer (C110B, Promega, Madison, Wis.). A target gene was amplified in a MiniOpticon™ Real-time PCR Detection system (CFB-3120, Bio-Rad, Hercules, Calif.) using iQTM SYBR Green Supermix (#170-8880, Bio-Rad, Hercules, Calif.) and target gene-specific primers. Real-time PCR conditions were as follows: a PCR cycle of denaturation at 95° C. for 20 seconds; denaturation at 95° C. for 20 seconds; annealing at 56° C. for 20 seconds; and elongation at 72° C. for 30 seconds, and the PCR cycle was repeated 40 times, followed by the final process at 95° C. for 1 minute and at 55° C. for 1 minute. Ct values were determined by the method according to Livak K J et al ((1996) Method 25:402-408) using MJ Opticon Monitor software (Opticon Monitor 3.1.32, Bio-Rad, Hercules, Calif.), and calibrated with the Ct value of β-actin of the sample, and the mRNA expression of EMT markers in the breast cancer cell line is illustrated in FIGS. 7A to 7D.

T1 sequence (Q8TEK3 whole entry): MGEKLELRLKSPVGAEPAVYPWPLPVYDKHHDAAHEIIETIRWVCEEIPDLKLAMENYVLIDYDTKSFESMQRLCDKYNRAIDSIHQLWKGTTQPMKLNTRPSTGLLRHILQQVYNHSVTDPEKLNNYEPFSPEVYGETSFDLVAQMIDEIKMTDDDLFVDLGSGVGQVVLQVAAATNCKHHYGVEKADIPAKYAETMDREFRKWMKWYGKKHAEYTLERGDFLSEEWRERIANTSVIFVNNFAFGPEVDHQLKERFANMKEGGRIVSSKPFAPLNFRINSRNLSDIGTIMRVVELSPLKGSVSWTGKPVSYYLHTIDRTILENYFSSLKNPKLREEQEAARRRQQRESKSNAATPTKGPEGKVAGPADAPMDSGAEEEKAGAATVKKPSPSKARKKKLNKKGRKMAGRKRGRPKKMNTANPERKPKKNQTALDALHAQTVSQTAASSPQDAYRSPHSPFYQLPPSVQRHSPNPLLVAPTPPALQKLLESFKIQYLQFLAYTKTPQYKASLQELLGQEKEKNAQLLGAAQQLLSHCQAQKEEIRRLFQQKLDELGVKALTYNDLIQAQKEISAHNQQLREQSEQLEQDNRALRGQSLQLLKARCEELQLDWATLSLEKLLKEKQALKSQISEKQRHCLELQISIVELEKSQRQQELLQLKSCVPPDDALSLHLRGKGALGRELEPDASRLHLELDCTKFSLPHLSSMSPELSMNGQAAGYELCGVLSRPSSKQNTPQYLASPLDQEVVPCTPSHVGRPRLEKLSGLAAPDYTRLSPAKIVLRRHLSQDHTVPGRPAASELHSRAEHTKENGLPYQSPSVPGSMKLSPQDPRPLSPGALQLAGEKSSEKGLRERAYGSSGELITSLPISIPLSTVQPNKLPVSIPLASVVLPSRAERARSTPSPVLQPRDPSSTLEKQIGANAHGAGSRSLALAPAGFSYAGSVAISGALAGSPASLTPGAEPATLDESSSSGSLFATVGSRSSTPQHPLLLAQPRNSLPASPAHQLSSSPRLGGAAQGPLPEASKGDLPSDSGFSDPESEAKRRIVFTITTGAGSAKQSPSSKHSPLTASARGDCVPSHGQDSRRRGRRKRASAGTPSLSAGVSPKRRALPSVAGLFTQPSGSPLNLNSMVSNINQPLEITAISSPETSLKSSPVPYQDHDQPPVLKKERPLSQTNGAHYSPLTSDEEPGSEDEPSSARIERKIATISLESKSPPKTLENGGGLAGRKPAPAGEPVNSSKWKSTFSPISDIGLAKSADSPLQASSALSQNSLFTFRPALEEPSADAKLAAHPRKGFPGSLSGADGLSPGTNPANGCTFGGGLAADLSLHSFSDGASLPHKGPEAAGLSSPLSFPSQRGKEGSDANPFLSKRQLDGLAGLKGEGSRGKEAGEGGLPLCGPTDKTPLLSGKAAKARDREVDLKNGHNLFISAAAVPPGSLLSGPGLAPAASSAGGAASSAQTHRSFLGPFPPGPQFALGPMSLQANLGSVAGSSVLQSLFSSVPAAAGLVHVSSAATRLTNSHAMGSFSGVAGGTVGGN

O=C(NCC[Se][Se]CCNC(=O)/C(Cc1ccccc1)=N/O)/C(Cc1ccccc1)=N/O [Compound 2, (2E,2′E)-N,N′-(diselenediylbis(ethane-2,1-diyl))bis(2-(hydroxyimino)-3-phenylpropanamide)]
migration of breast cancer cells (MDA-MB-231 cells [1]): effectively suppressed | invasion of breast cancer cells (MDA-MB-231 cells [2]): effectively suppressed | inhibitory effect on H3K79 methylation (DOT1L): excellent | mRNA expression of E-cadherin (CDH1) [3]: increased | mRNA expression of N-cadherin (CDH2) [3]: suppressed | mRNA expression of ZEB1 [3]: suppressed | mRNA expression of vimentin (VIM) [3]: suppressed
